Experimental data from patent US20050148627A1, “Benzopyran compounds for use in the treatment and prevention of inflammation related conditions” (priority 2003, published 2005).
Several values for one entry are separate records, joined by “and”; a condition that tells them apart may be missing. Identical values can stand only once.

Target: COX-1 (Homo sapiens, UniProt P23219)
Test: biochemical

Chain of COX-1 (P23219 24-599): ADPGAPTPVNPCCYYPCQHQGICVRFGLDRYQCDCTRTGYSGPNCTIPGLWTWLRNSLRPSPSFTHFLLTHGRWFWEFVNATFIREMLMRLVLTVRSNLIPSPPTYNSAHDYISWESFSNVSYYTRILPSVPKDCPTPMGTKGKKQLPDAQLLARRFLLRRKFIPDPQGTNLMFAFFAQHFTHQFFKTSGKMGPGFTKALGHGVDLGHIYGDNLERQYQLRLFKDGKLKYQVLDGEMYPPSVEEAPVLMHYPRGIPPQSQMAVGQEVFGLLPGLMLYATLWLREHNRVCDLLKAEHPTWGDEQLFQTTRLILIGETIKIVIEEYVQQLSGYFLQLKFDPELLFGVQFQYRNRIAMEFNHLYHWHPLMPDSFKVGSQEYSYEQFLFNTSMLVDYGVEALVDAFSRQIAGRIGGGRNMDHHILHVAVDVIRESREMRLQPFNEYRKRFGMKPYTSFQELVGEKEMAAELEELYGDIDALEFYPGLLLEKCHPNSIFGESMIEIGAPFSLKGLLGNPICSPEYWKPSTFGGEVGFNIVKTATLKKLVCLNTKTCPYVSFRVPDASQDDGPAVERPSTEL

| IC50 | SMILES |
| --- | --- |
| > 100 µM | O=C(O)C1=Cc2cc(Cl)c(NCc3ccccc3)cc2OC1C(F)(F)F (stereo not drawn) [Example 8k, 7-(benzylamino)-6-chloro-2-(trifluoromethyl)-2H-chromene-3-carboxylic acid] |
| 14.1 µM | CN(Cc1ccccc1)c1cc2c(cc1Cl)C=C(C(=O)O)C(C(F)(F)F)O2 (stereo not drawn) [Example 8i, 7-[benzyl(methyl)amino]-6-chloro-2-(trifluoromethyl)-2H-chromene-3-carboxylic acid] |
| > 100 µM | CC1CCN(c2cc3c(cc2Cl)C=C(C(=O)O)C(C(F)(F)F)O3)CC1 (stereo not drawn) [Example 8d, 6-chloro-7-(4-methylpiperidin-1-yl)-2-(trifluoromethyl)-2H-chromene-3-carboxylic acid] |
| 0.5 µM and 0.392 µM | O=C(O)C1=Cc2cc(OC3CCCCC3)cc(Cl)c2OC1C(F)(F)F (stereo not drawn) [Example 17g, 8-chloro-6-(cyclohexyloxy)-2-(trifluoromethyl)-2H-chromene-3-carboxylic acid] |
| 43.6 µM and 41.3 µM | CCCOc1c(Cl)c(Cl)c(Cl)c2c1OC(C(F)(F)F)C(C(=O)O)=C2 (stereo not drawn) [Example 28a, 5,6,7-trichloro-8-propoxy-2-(trifluoromethyl)-2H-chromene-3-carboxylic acid] |
| 40.4 µM | CCCCCc1cc(OC(F)(F)F)cc2c1OC(C(F)(F)F)C(C(=O)O)=C2 (stereo not drawn) [Example 21j, 8-pentyl-6-(trifluoromethoxy)-2-(trifluoromethyl)-2H-chromene-3-carboxylic acid] |
| > 100 µM and 80.7 µM | O=C(O)C1=Cc2cccc(OCc3ccccc3)c2OC1C(F)(F)F (stereo not drawn) [Example 25g, 8-(benzyloxy)-2-(trifluoromethyl)-2H-chromene-3-carboxylic acid] |
| > 100 µM | O=C(O)C1=Cc2cc(Cl)c(N3CCC3)cc2OC1C(F)(F)F (stereo not drawn) [Example 8j, 7-azetidin-1-yl-6-chloro-2-(trifluoromethyl)-2H-chromene-3-carboxylic acid] |
| > 33.3 µM and > 11.1 µM and 180 µM and > 100 µM | CCN(CC)c1cc2c(cc1Cl)C=C(C(=O)O)C(C(F)(F)F)O2 (stereo not drawn) [Example 8l, 6-chloro-7-(diethylamino)-2-(trifluoromethyl)-2H-chromene-3-carboxylic acid] |
| < 0.137 µM | COc1cc(Cl)c2c(c1Cl)C=C(C(=O)O)C(C(F)(F)F)O2 (stereo not drawn) [Example 18a, 5,8-dichloro-6-methoxy-2-(trifluoromethyl)-2H-chromene-3-carboxylic acid] |
| 57.9 µM and 35.5 µM | CCc1ccc2c(c1)C=C(C(=O)O)[C@@H](C(F)(F)F)O2 (single isomer, unassigned) [Example 34b] |
| > 100 µM and 72.3 µM | O=C(O)C1=Cc2cccc(OCc3ccoc3)c2OC1C(F)(F)F (stereo not drawn) [Example 25h, 8-(3-furylmethoxy)-2-(trifluoromethyl)-2H-chromene-3-carboxylic acid] |
| > 100 µM | COc1cccc(Cc2ccc3c(c2)OC(C(F)(F)F)C(C(=O)O)=C3)c1 (stereo not drawn) [Example 9w, 7-(3-methoxybenzyl)-2-(trifluoromethyl)-2H-chromene-3-carboxylic acid] |
| < 0.137 µM | COc1c(Cl)c(Cl)c2c(c1Cl)C=C(C(=O)O)C(C(F)(F)F)O2 (stereo not drawn) [Example 20a, 5,7,8-trichloro-6-methoxy-2-(trifluoromethyl)-2H-chromene-3-carboxylic acid] |
| > 500 µM | COc1ccc(Cl)c2c1OC(C(F)(F)F)C(C(=O)O)=C2 (stereo not drawn) [Example 23d, 5-chloro-8-methoxy-2-(trifluoromethyl)-2H-chromene-3-carboxylic acid] |
| > 500 µM | O=C(O)C1=Cc2cccc(Oc3ccc([N+](=O)[O-])cc3F)c2OC1C(F)(F)F (stereo not drawn) [Example 25a, 8-(2-fluoro-4-nitrophenoxy)-2-(trifluoromethyl)-2H-chromene-3-carboxylic acid] |
| 3.93 µM | NS(=O)(=O)c1ccc(C#Cc2cc(Cl)cc3c2OC(C(F)(F)F)C(C(=O)O)=C3)cc1 (stereo not drawn) [Example 39b, 8-{[4-(aminosulfonyl)phenyl]ethynyl}-6-chloro-2-(trifluoromethyl)-2H-chromene-3-carboxylic acid] |
| > 100 µM and 194 µM | CCCN(CC1CC1)c1cc2c(cc1Cl)C=C(C(=O)O)C(C(F)(F)F)O2 (stereo not drawn) [Example 8g, 6-chloro-7-[(cyclopropylmethyl)(propyl)amino]-2-(trifluoromethyl)-2H-chromene-3-carboxylic acid] |
| 147 µM and > 100 µM | CC(C)c1cc2c(cc1Cl)C=C(C(=O)O)C(C(F)(F)F)O2 (stereo not drawn) [Example 9f, 6-chloro-7-isopropyl-2-(trifluoromethyl)-2H-chromene-3-carboxylic acid] |
| > 100 µM and 130 µM | O=C(O)C1=Cc2cc(Cl)c(N3CC=CCC3)cc2OC1C(F)(F)F (stereo not drawn) [Example 8e, 6-chloro-7-(3,6-dihydropyridin-1(2H)-yl)-2-(trifluoromethyl)-2H-chromene-3-carboxylic acid] |
| 99 µM and 189 µM | CC1CCCN(c2cc3c(cc2Cl)C=C(C(=O)O)C(C(F)(F)F)O3)C1 (stereo not drawn) [Example 8b, 6-chloro-7-(3-methylpiperidin-1-yl)-2-(trifluoromethyl)-2H-chromene-3-carboxylic acid] |
| 19 µM and 17.9 µM | CC(C)(C)CCc1cc2c(cc1Cl)C=C(C(=O)O)C(C(F)(F)F)O2 (stereo not drawn) [Example 9b, 6-chloro-7-(3,3-dimethylbutyl)-2-(trifluoromethyl)-2H-chromene-3-carboxylic acid] |
| 27.4 µM | O=C(O)C1=Cc2cc(Cl)c(Cc3ccc(F)c(F)c3)cc2OC1C(F)(F)F (stereo not drawn) [Example 9z, 6-chloro-7-(3,4-difluorobenzyl)-2-(trifluoromethyl)-2H-chromene-3-carboxylic acid] |
| 24.2 µM and 25.1 µM | CC(C)c1cc2c(cc1Cl)C(Cl)=C(C(=O)O)C(C(F)(F)F)O2 (stereo not drawn) [Example 9g, 4,6-dichloro-7-isopropyl-2-(trifluoromethyl)-2H-chromene-3-carboxylic acid] |
| > 500 µM | CCOc1ccc(Br)c2c1OC(C(F)(F)F)C(C(=O)O)=C2 (stereo not drawn) [Example 24b, 5-bromo-8-ethoxy-2-(trifluoromethyl)-2H-chromene-3-carboxylic acid] |
| 32.3 µM and 7.18 µM and 6.42 µM and 8.06 µM and 18.4 µM | Cc1cc(Cl)cc2c1O[C@H](C(F)(F)F)C(C(=O)O)=C2 (single isomer, unassigned) [Example 21t] |
| 80.8 µM | COc1ccc(Cc2cc3c(cc2Cl)C=C(C(=O)O)C(C(F)(F)F)O3)cc1Cl (stereo not drawn) [Example 9r, 6-chloro-7-(3-chloro-4-methoxybenzyl)-2-(trifluoromethyl)-2H-chromene-3-carboxylic acid] |
| 0.365 µM and < 0.137 µM | O=C(O)C1=Cc2cc(OCc3ccccc3)cc(Cl)c2OC1C(F)(F)F (stereo not drawn) [Example 17d, 6-(benzyloxy)-8-chloro-2-(trifluoromethyl)-2H-chromene-3-carboxylic acid] |

Further lines, the molecule ahead of its results:

| SMILES | IC50 |
| --- | --- |
| O=C(O)C1=Cc2cc(Cl)c(C(=O)c3ccccc3)cc2OC1C(F)(F)F (stereo not drawn) [Example 10, 7-benzoyl-6-chloro-2-(trifluoromethyl)-2H-chromene-3-carboxylic acid] | < 0.137 µM |
| Cc1cc2c(c(C)c1Cl)C=C(C(=O)O)[C@H](C(F)(F)F)O2 [Example 101, (2R)-6-chloro-5,7-dimethyl-2-(trifluoromethyl)-2H-chromene-3-carboxylic acid] | > 100 µM and 430 µM and > 500 µM |
| Cc1cc(Cl)cc2c1NC(C(F)(F)F)C(C(=O)O)=C2 (stereo not drawn) [Example 47, 6-chloro-8-methyl-2-(trifluoromethyl)-1,2-dihydroquinoline-3-carboxylic acid] | > 500 µM |
| O=C(O)C1=Cc2c(cc(Cc3ccccc3)c(Cl)c2Cl)OC1C(F)(F)F (stereo not drawn) [Example 13, 7-benzyl-5,6-dichloro-2-(trifluoromethyl)-2H-chromene-3-carboxylic acid] | 4.18 µM and 2.79 µM |
| COc1cc2c(c(Cl)c1Cl)OC(C(F)(F)F)C(C(=O)O)=C2 (stereo not drawn) [Example 19, 7,8-dichloro-6-methoxy-2-(trifluoromethyl)-2H-chromene-3-carboxylic acid] | 82.1 µM and 34.7 µM |
| CCCC(=O)NCc1cc2c(cc1Cl)C=C(C(=O)O)C(C(F)(F)F)O2 (stereo not drawn) [Example 16, 7-[(butyrylamino)methyl]-6-chloro-2-(trifluoromethyl)-2H-chromene-3-carboxylic acid] | > 100 µM |
| O=C(O)C1=Cc2cc(Cl)c(OCC3CCCC3)c(Cl)c2OC1C(F)(F)F (stereo not drawn) [Example 1c, 6,8-dichloro-7-(cyclopentylmethoxy)-2-(trifluoromethyl)-2H-chromene-3-carboxylic acid] | 0.543 µM and 0.143 µM |
| O=C(O)COc1ccc2c(c1)OC(C(F)(F)F)C(C(=O)O)=C2 (stereo not drawn) [Example 5g, 7-(carboxymethoxy)-2-(trifluoromethyl)-2H-chromene-3-carboxylic acid] | > 100 µM |
| CCC(C)Sc1cc2c(cc1Cl)C=C(C(=O)O)C(C(F)(F)F)O2 (stereo not drawn) [Example 7g, 7-(sec-butylthio)-6-chloro-2-(trifluoromethyl)-2H-chromene-3-carboxylic acid] | 7.2 µM and 6.35 µM |
| Cc1c(OCCC(C)C)c(Cl)cc2c1OC(C(F)(F)F)C(C(=O)O)=C2 (stereo not drawn) [Example 3h, 6-chloro-7-(isopentyloxy)-8-methyl-2-(trifluoromethyl)-2H-chromene-3-carboxylic acid] | 17 µM and 18.5 µM and 18.4 µM |
| CCCSc1cc2c(cc1Cl)C=C(C(=O)O)C(C(F)(F)F)O2 (stereo not drawn) [Example 7c, 6-chloro-7-(propylthio)-2-(trifluoromethyl)-2H-chromene-3-carboxylic acid] | > 100 µM |
| CCC(CC)COc1c(Cl)cc2c(c1C)OC(C(F)(F)F)C(C(=O)O)=C2 (stereo not drawn) [Example 3b, 6-chloro-7-(2-ethylbutoxy)-8-methyl-2-(trifluoromethyl)-2H-chromene-3-carboxylic acid] | 15.8 µM and 6.7 µM |
| O=C(O)C1=Cc2c(cc3c(c2Cl)OCO3)OC1C(F)(F)F (stereo not drawn) [Example 119, 9-chloro-6-(trifluoromethyl)-6H-[1,3]dioxolo[4,5-g]chromene-7-carboxylic acid] | > 500 µM |
| CCCCOc1cccc2c1OC(C(F)(F)F)C(C(=O)O)=C2 (stereo not drawn) [Example 25f, 8-butoxy-2-(trifluoromethyl)-2H-chromene-3-carboxylic acid] | > 100 µM |
| CC(C)(C)CCOc1cc2c(cc1Cl)C=C(C(=O)O)C(C(F)(F)F)O2 (stereo not drawn) [Example 2e, 6-chloro-7-(3,3-dimethylbutoxy)-2-(trifluoromethyl)-2H-chromene-3-carboxylic acid] | 68.8 µM |
| CC(C)CCSc1cc2c(cc1Cl)C=C(C(=O)O)C(C(F)(F)F)O2 (stereo not drawn) [Example 7b, 6-chloro-7-(isopentylthio)-2-(trifluoromethyl)-2H-chromene-3-carboxylic acid] | > 100 µM |
| O=C(O)C1=Cc2ccc(-c3ccco3)cc2OC1C(F)(F)F (stereo not drawn) [Example 12, 7-(2-furyl)-2-(trifluoromethyl)-2H-chromene-3-carboxylic acid] | > 100 µM |
